According to patent US20030022876A1, “Sustained-release analgesic compounds” (priority 2001, published 2003):

Assays:
[1] = Stability (half-life) in human plasma at 37° C., HPLC analysis; type: in vitro ADME; details: stock solution diluted 10 fold
Description: (§1) This stock solution was diluted 10 fold in either 0.1 M phosphate buffer, pH 7.4, or human plasma, and the working solution was placed in a water bath at 37° C. Samples had been taken every hour for the plasma and every couple of hours for the buffer.

[2] = Stability (half-life) in 0.1 M phosphate buffer, pH 7.4, at 37° C., HPLC analysis; type: physicochemical; details: pH 7.4, 37° C.
Description: as §1

SMILES	half-life at 0.1 mg/ml [1]	half-life at 0.1 mg/ml [2]
COc1ccc2cc(C(C)C(=O)OCOC(=O)Oc3ccc4c5c3O[C@H]3[C@@H](O)C=CC6[C@@H](C4)N(C)CC[C@@]563)ccc2c1 (stereo partly shown) [Inventive compound (16)]	0.0583 ± 0.01 h	7.6 ± 0.5 h
CN1CC[C@]23c4c5ccc(OC(=O)Cc6ccccc6Nc6c(Cl)cccc6Cl)c4O[C@H]2[C@@H](O)C=C[C@H]3[C@H]1C5 [Inventive compound (10)]	0.35 ± 0.0167 h	2.5 ± 0.5 h
